Laboratory results taken from ChEMBL document CHEMBL3867432, “Autophagy regulates Selumetinib (AZD6244) induced-apoptosis in colorectal cancer cells” (Eur J Med Chem, 2016).
Active and inactive are the calls of the source. The rule behind the calls is not given here.

How the values were obtained:
SW480 [1] = assay: Induction of apoptosis in human SW480 cells assessed as necrotic cells at 10 uM after 48 hrs by annexin V-FITC/propidium iodide staining based flow cytometry (reference value: 2.8%); assay type: functional
SW480 [2] = assay: Induction of apoptosis in human SW480 cells assessed as increase in LC3-2 level at 10 uM after 48 hrs in presence of autophagy inhibitor bafilomycin A1 by Western blot analysis; assay type: functional, cell-based
[3] = Cell cycle arrest in human SW480 cells assessed as accumulation at subG1 phase at 3 uM after 48 hrs by propidium iodide staining based flow cytometry (reference value: 5.7%); assay type: functional
HT-29 [4] = assay: Induction of apoptosis in human HT-29 cells assessed as apoptotic cells at 10 uM after 48 hrs in presence of autophagy inhibitor bafilomycin A1 by annexin V-FITC/propidium iodide staining based flow cytometry (reference value: 15.7 to 19.6%); assay type: functional
[5] = Cell cycle arrest in human SW480 cells assessed as accumulation at G1 phase at 3 uM after 48 hrs by propidium iodide staining based flow cytometry (reference value: 61.2%); assay type: functional
SW480 [6] = assay: Induction of apoptosis in human SW480 cells assessed as accumulation at subG1 phase at 10 uM after 48 hrs in presence of pan caspase inhibitor zVAD by Annexin-V-FITC/propidium iodide staining based flow cytometry (reference value: 15.3%); assay type: functional
[7] = Cell cycle arrest in human SW480 cells assessed as accumulation at G1 phase at 1 uM after 48 hrs by propidium iodide staining based flow cytometry (reference value: 61.2%); assay type: functional
SW480 [8] = assay: Induction of apoptosis in human SW480 cells after 48 hrs by annexin V-FITC/propidium iodide staining based flow cytometry; assay type: functional, cell-based
SW480 [9] = assay: Induction of apoptosis in human SW480 cells assessed as apoptotic cells at 3 uM after 48 hrs by annexin V-FITC/propidium iodide staining based flow cytometry (reference value: 10.6%); assay type: functional
[10] = Cell cycle arrest in human SW480 cells assessed as accumulation at subG1 phase at 1 uM after 48 hrs by propidium iodide staining based flow cytometry (reference value: 5.7%); assay type: functional
SW480 [11] = assay: Induction of apoptosis in human SW480 cells assessed as apoptotic cells at 10 uM after 48 hrs in presence of autophagy inducer rapamycin by annexin V-FITC/propidium iodide staining based flow cytometry (reference value: 9.6 to 15.3%); assay type: functional
[12] = Antiproliferative activity against human SW480 cells after 72 hrs by MTT assay; assay type: functional, cell-based; details: SW480, 72 h
SW480 [13] = assay: Induction of apoptosis in human SW480 cells assessed as necrotic cells at 3 uM after 48 hrs by annexin V-FITC/propidium iodide staining based flow cytometry (reference value: 2.8%); assay type: functional
HT-29 [14] = assay: Induction of apoptosis in human HT-29 cells assessed as apoptotic cells at 10 uM after 48 hrs by annexin V-FITC/propidium iodide staining based flow cytometry (reference value: 15.7 to 19.6%); assay type: functional
HT-29 [15] = assay: Induction of apoptosis in human HT-29 cells assessed as apoptotic cells at 10 uM after 48 hrs in presence of autophagy inhibitor CQ by annexin V-FITC/propidium iodide staining based flow cytometry (reference value: 15.7 to 19.6%); assay type: functional
SW480 [16] = assay: Induction of apoptosis in beclin-1 silenced human SW480 cells assessed as apoptotic cells at 10 uM after 48 hrs by annexin V-FITC/propidium iodide staining based flow cytometry (reference value: 14.4%); assay type: functional
SW480 [17] = assay: Induction of apoptosis in human SW480 cells assessed as apoptotic cells at 1 uM after 48 hrs by annexin V-FITC/propidium iodide staining based flow cytometry (reference value: 10.6%); assay type: functional
SW480 [18] = assay: Induction of apoptosis in human SW480 cells assessed as accumulation at subG1 phase at 10 uM after 48 hrs in presence of autophagy inducer rapamycin by propidium iodide staining based flow cytometry (reference value: 5.7 to 15.3%); assay type: functional
SW480 [19] = assay: Induction of apoptosis in human SW480 cells assessed as apoptotic cells at 10 uM after 48 hrs in presence of autophagy inhibitor bafilomycin A1 by annexin V-FITC/propidium iodide staining based flow cytometry (reference value: 9.6 to 15.3%); assay type: functional
SW480 [20] = assay: Induction of apoptosis in human SW480 cells assessed as apoptotic cells at 10 uM after 48 hrs in presence of autophagy inhibitor 3-MA by annexin V-FITC/propidium iodide staining based flow cytometry (reference value: 9.6 to 15.3%); assay type: functional
SW480 [21] = assay: Induction of apoptosis in human SW480 cells assessed as apoptotic cells at 10 uM after 48 hrs in presence of autophagy inhibitor CQ by annexin V-FITC/propidium iodide staining based flow cytometry (reference value: 9.6 to 15.3%); assay type: functional
SW480 [22] = assay: […] of autophagy in human SW480 cells expressing mCherry-eGFPeLC3 assessed as accumulation of autophagosomes at 10 uM after 2 hrs by confocal microscopic analysis; assay type: functional, cell-based
[23] = Cell cycle arrest in human SW480 cells assessed as accumulation at G1 phase at 10 uM after 48 hrs by propidium iodide staining based flow cytometry (reference value: 61.2%); assay type: functional
SW480 [24] = assay: Induction of apoptosis in human SW480 cells assessed as necrotic cells at 1 uM after 48 hrs by annexin V-FITC/propidium iodide staining based flow cytometry (reference value: 2.8%); assay type: functional
[25] = Cell cycle arrest in human SW480 cells assessed as accumulation at subG1 phase at 10 uM after 48 hrs by propidium iodide staining based flow cytometry (reference value: 5.7 to 15.3%); assay type: functional
[26] = Cell cycle arrest in human SW480 cells after 48 hrs by propidium iodide staining based flow cytometry; assay type: functional
SW480 [27] = assay: Induction of apoptosis in human SW480 cells assessed as apoptotic cells at 10 uM after 48 hrs by annexin V-FITC/propidium iodide staining based flow cytometry (reference value: 9.6 to 15.3%); assay type: functional
SW480 [28] = assay: Induction of autophagy in human SW480 cells assessed as increase in LC3-2 level at 10 uM after 1 to 4 hrs by Western blot analysis; assay type: functional, cell-based

Cn1cnc2c(F)c(Nc3ccc(Br)cc3Cl)c(C(=O)NOCCO)cc21 [SELUMETINIB]
Activity (SW480 [1]): 5.3%
Activity (SW480 [2]): Active
Activity [3]: 17.8%
Activity (HT-29 [4]): 68.3%
Activity [5]: 59.6%
Activity (SW480 [6]): 24.1%
Activity [7]: 75%
Activity (SW480 [8]): Dose-dependent effect
Activity (SW480 [9]): 23.1%
Activity [10]: 10%
Activity (SW480 [11]): 21.4%
IC50 [12]: 422 nM
Activity (SW480 [13]): 4.9%
Activity (HT-29 [14]): 43.9 - 51.2%
Activity (HT-29 [15]): 58.6%
Activity (SW480 [16]): 53.3%
Activity (SW480 [17]): 17.4%
Activity (SW480 [18]): 11.9%
Activity (SW480 [19]): 64.9%
Activity (SW480 [20]): 41.1%
Activity (SW480 [21]): 55.4%
inhibition (SW480 [22]): Active
Activity [23]: 58%
Activity (SW480 [24]): 4.2%
Activity [25]: 23.7 to 42.9%
Activity [26]: Dose-dependent effect
Activity (SW480 [27]): 29 - 42.9%
Activity (SW480 [28]): Active
